The text below walks through data of patent US10456407B2, “Combination therapy for treating cancer” (Epizyme, Inc., priority 2015, dated 2019).

One series has as its system Toledo cells. The settings on record: Toledo (WT EZH2 ABC); drug combined with Compound 44. How it is done:
(§1) After 3 days of co-treatment, cell viability was measured via ATP content using CellTiter-Glo®
(§2) Synergy quantification is performed using the Chou-Talalay method^3 for drug combination. The Combination Index (CI) equation offers a quantitative definition for additivity (CI=1), synergism (CI<1), and antagonism (CI>1). This equation used Fa values from a constant ratio of drug combination to determine CI values. […] These Fa-CI plots are generated using the Calcusyn software.
(§3) After 3 days of co-treatment (5 days for Toledo assays), cell viability was measured via ATP content using CellTiter-Glo® (Promega) and luminescence was detected using a SpectraMax M5 microplate reader (Molecular Devices).
(§4) Synergy quantification is performed using the Chou-Talalay method for drug combination (Ref 1). The Combination Index (CI) equation offers a quantitative definition for additivity (CI=1), synergism (CI<1), and antagonism (CI>1). This equation used fractional effect (Fa) values from a constant ratio of drug combination to determine CI values. […] These Fa-CI plots are generated using the Calcusyn for Windows software (Ref2).
(§5) Dose responses were plotted using Graphpad Prism and either 50% or 60% inhibitory concentrations were interpolated from the dose response curves.

A further series concerns WSU-DLCL2 cells. The settings on record: for growth inhibition by the drug by itself: WSU-DLCL2, single agent. How it is done:
as §1, §2, §3, §4, §5

A further series deals with DOHH2 cells. The conditions noted are these: DOHH2 (WT EZH2 GCB); drug combined with Compound 44. The method, then:
as §1, §2, §3, §4, §5

In the next series the test system is SU-DHL10 cells. The conditions noted are these: for growth inhibition by the drug by itself: SU-DHL10, single agent. How it is done:
as §1, §2, §3, §4, §5

The conditions of series [1]: due to its cardiotoxicity; cited from earlier work.
Series [2] has as its system EZH2 mutant lymphoma cell line. Kind of series: Combination assay with targeted therapies (pre-treatment model A, Calcusyn), EZH2 mutant lymphoma cell line. The conditions noted are these: pretreatment model A, combined with Compound 44. It counts as cell-based. From the text: Statistically significant CI values for synergy are for example those CI value<1 with the confidence interval lines also below 1.
CI values<1 with confidence interval lines also below 1 indicate statistically significant synergism.

The subject of a further series is RP-R-02LM ccRCC PDX. In kind it is in vivo. The settings on record: tumors at primary site.
Setting [3] is: WSU-DLCL2 (EZH2 mutant GCB), drug combined with Compound 44.
Setting [4] is: SU-DHL 10 (EZH2 mutant GCB), drug combined with Compound 44.

Structures are written as SMILES. Bounds are passed on as bounds.

Experimental for RP-R-02LM ccRCC PDX: Mice bearing human ccRCC patient derived xenograft (PDXs); RP-R-01, RP-R-02 and RP-R-02LM (a metastatic ccRCC model established from RP-R-02) were implanted into SCID mice. […] Tumors volumes and body weight were assessed once per week. Tumor tissues and lungs were collected for immunohistochemistry analysis. All assessments and quantification were done blindly.

As for `COc1cccc2c1C(=O)c1c(O)c3c(c(O)c1C2=O)C[C@@](O)(C(=O)CO)C[C@@H]3O[C@H]1C[C@H](N)[C@H](O)[C@H](C)O1` [Doxurubicin, doxorubicin], the “Summary of Combinations with Compound 44 (combination effect)” value (shortened to “Summary … (combination effect)”) in the series on Toledo cells is “no effect”; in the series on WSU-DLCL2 cells (setting [3]), “synergy (Cl < 1 synergy)”; in the series with DOHH2 cells it was “no effect”; in the series on SU-DHL10 cells (setting [4]), “additive (Cl = 1 additive)”. For the same compound, the “growth inhibition by the drug by itself” value in the series on WSU-DLCL2 cells and in the series on SU-DHL10 cells was “concentration-dependent growth inhibition” in each case. Further, the “lifetime cumulative dosing limit” value in series [1] was less than 550 mg/m^2.

As for `CC[C@]1(O)C[C@H]2CN(CCc3c([nH]c4ccccc34)[C@@](C(=O)OC)(c3cc4c(cc3OC)N(C=O)[C@H]3[C@@](O)(C(=O)OC)[C@H](OC(C)=O)[C@]5(CC)C=CCN6CC[C@]43[C@@H]65)C2)C1` [Vincristine, vincristine], the “Summary … (combination effect)” value with Toledo cells is listed as “no effect”; with WSU-DLCL2 cells (setting [3]), “additive (Cl = 1 additive)”; in the series on DOHH2 cells, “no effect”; with SU-DHL10 cells (setting [4]), “additive (Cl = 1 additive)”. In addition, the “growth inhibition by the drug by itself” value in the series with WSU-DLCL2 cells and in the series with SU-DHL10 cells was “concentration-dependent growth inhibition” in each case.

Regarding `CO[C@H]1C[C@@H]2CC[C@@H](C)[C@@](O)(O2)C(=O)C(=O)N2CCCC[C@H]2C(=O)O[C@H]([C@H](C)C[C@@H]2CC[C@@H](OCCO)[C@H](OC)C2)CC(=O)[C@H](C)/C=C(\C)[C@@H](O)[C@@H](OC)C(=O)[C@H](C)C[C@H](C)/C=C/C=C/C=C/1C` [everolimus], in series [2], the “synergy in combination with Compound 44” value was “Very strong synergy”.

As for `CCN(c1cc(C#CCN2CCOCC2)cc(C(=O)NCc2c(C)cc(C)[nH]c2=O)c1C)C1CCC(N(C)CCOC)CC1` (centres unmarked) [Compound B], the “cell proliferation (Ki67 stain)” value in the series with RP-R-02LM ccRCC PDX is “Decreased cell proliferation”.

As for `C[C@@H]1C[C@H]2[C@@H]3CCC4=CC(=O)C=C[C@]4(C)[C@@]3(F)[C@@H](O)C[C@]2(C)[C@@]1(O)C(=O)CO` [Dexamethasone, dexamethasone], the “Summary … (combination effect)” value in the series on Toledo cells is “no effect”. The entries for the “Summary of Combinations with Compound 44: potency enhanced” value with WSU-DLCL2 cells (setting [3]), in the series on DOHH2 cells and with SU-DHL10 cells (setting [4]) were 15x, “potency enhanced 4x” and “potency enhanced 5x”, respectively.

As to `CC1(C)CCC(c2ccc(Cl)cc2)=C(CN2CCN(c3ccc(C(=O)NS(=O)(=O)c4ccc(N[C@H](CCN5CCOCC5)CSc5ccccc5)c(S(=O)(=O)C(F)(F)F)c4)cc3)CC2)C1` [Navitoclax], in series [2], the “synergy in combination with Compound 44” value is listed as “Very strong synergy”.
